Holding throughout (assay): NCI tumour cell line growth inhibition, 48 h
Assay [1] has as its system KM20L2 colon.
Assay [2] concerns LXFL 529 NSCLC.
Assay [3] relates to DMS 273 small cell lung.
The subject of assay [4] is XF 498 CNS.
Assay [5] has as its system P388/ADR leukemia.
Assay [6] relates to P388 leukemia.
The subject of assay [7] is SN12K1 renal.
The subject of assay [8] is DLD-1 colon.

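Five compound concentrations were applied to cells in 96-well plates for 48 hours; endpoints were derived by simple linear interpolation of the resulting dose-response curve. TGI: concentration producing complete growth inhibition.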

Regarding `CCCSc1nc(-c2ccc(OC)cc2)c(C#N)c(=O)n1C1OC(COC(C)=O)C(OC(C)=O)C(OC(C)=O)C1OC(C)=O` (stereo not given), the TGI in assay [1] and in assay [2] was above 100 µM each time.

Consider `c1c2c(cc(-n3nnc4c3CCCCCC4)c1-n1nnc3c1CCCCCC3)CCCCCC2`, for which the figures for the TGI in assay [3] and in assay [4] were 12.3 µM and 9.62 µM, respectively.

For the molecule `CN(C)CC1CCC(CN(C)C)C1=O` (stereo not given), the TGI in assay [3] worked out at 36.7 µM; in assay [4], 10.3 µM; in assay [1], 38 µM; in assay [2], 2.96 µM.

`CCOC(=O)/C(O)=C1\C(=O)N(C)C(=O)C1c1cccc(OC)c1` (stereo not given): the TGI in assay [5], in assay [3], in assay [6], in assay [4], in assay [1] and in assay [7] was above 100 µM each time. In assay [8], the TGI is above 100 µM.

For the molecule `CN(C)CCC(=O)/C=C\c1ccccc1`, the TGI in assay [3] came out at 33.7 µM; in assay [4], 28.4 µM; in assay [1] it was 86.1 µM; in assay [2], 26.9 µM; in assay [8], 31.8 µM.

Take `C=C(CN(C)C)C(=O)c1ccccc1[N+](=O)[O-]`: the TGI in assay [3] is 33.7 µM; in assay [4] it was 31.2 µM; in assay [1] it was above 54.2 µM; in assay [2] it was 30.3 µM; in assay [8] it was 29.5 µM.

The values above are taken from PubChem BioAssay (NCI).
